The values that follow are results of earlier work, collected in US20170165286A1, “COMPOSITIONS AND METHODS FOR TREATING DIABETES AND LIVER DISEASES” (Cempra Pharmaceuticals, Inc., priority 2014, published 2017).

The conditions of series [1]: reported; cited from earlier work.
The conditions of series [2]: reportedly; cited from earlier work.

Consider `CC[C@H]1OC(=O)[C@H](C)C(=O)[C@H](C)[C@@H](O[C@@H]2O[C@H](C)C[C@H](N(C)C)[C@H]2O)[C@](C)(OC)C[C@@H](C)C(=O)[C@H](C)[C@H]2N(CCCCn3cnc(-c4cccnc4)c3)C(=O)O[C@]12C` [telithromycin], for which the QT effect entry in series [1] was “QT positive”.
Take `CC[C@H]1OC(=O)[C@H](C)[C@@H](O[C@H]2C[C@@](C)(OC)[C@@H](O)[C@H](C)O2)[C@H](C)[C@@H](O[C@@H]2O[C@H](C)C[C@H](N(C)C)[C@H]2O)[C@](C)(O)C[C@@H](C)CN(C)[C@H](C)[C@@H](O)[C@]1(C)O` [azithromycin]: the QT effect result in series [1] is given as “QT positive”.
`CC[C@H]1OC(=O)[C@H](C)[C@@H](O[C@H]2C[C@@](C)(OC)[C@@H](O)[C@H](C)O2)[C@H](C)[C@@H](O[C@@H]2O[C@H](C)C[C@H](N(C)C)[C@H]2O)[C@](C)(OC)C[C@@H](C)C(=O)[C@H](C)[C@@H](O)[C@]1(C)O` [clarithromycin]: the QT effect entry in series [1] is listed as “QT positive”. The Liver toxicity entry in series [2] is “toxic to the liver”.
